# Source: patent publication US12590067B2, “Herbicidal cyclohexanedione derivatives” (SYNGENTA CROP PROTECTION AG, priority 2019, dated 2026)
# Tests used:
# Experiment in all cases: Glasshouse herbicidal test, pre- and post-emergence, percentage damage to the plant
# Type in all cases: in vivo
# [1] = tested on: Alopecurus myosuroides (ALOMY); settings: 250 g/h, evaluated after 13 days; for ALOMY POST percentage damage caused to the plant (five-point scale): post-emergence; for ALOMY PRE percentage damage caused to the plant (five-point scale): pre-emergence
# Procedure: (§1) Seeds of a variety of test species are sown in standard soil in pots (Lolium perenne (LOLPE), Setaria faberi (SETFA), Alopecurus myosuroides (ALOMY), Echinochloa crus-galli (ECHCG), Avena fatua (AVEFA)). After cultivation for one day (pre-emergence) or after 8 days cultivation (post-emergence) under controlled conditions in a glasshouse (at 24/16° C., day/night; 14 hours light; 65% humidity), the plants are sprayed with an aqueous spray solution derived from the formulation of the technical active ingredient in acetone/water (50:50) solution containing 0.5% Tween 20 (polyoxyethelyene sorbitan monolaurate, CAS RN 9005-64-5). Compounds are applied at 250 g/h. The test plants are then grown in a glasshouse under controlled conditions in a glasshouse (at 24/16° C., day/night; 14 hours light; 65% humidity) and watered twice daily. After 13 days for pre and post-emergence, the test is evaluated for the percentage damage caused to the plant. The biological activities are shown in the following table on a five-point scale (5=80-100%; 4=60-79%; 3=40-59%; 2=20-39%; 1=0-19%).
# Avena fatua (AVEFA) = settings: 250 g/h, evaluated after 13 days; for AVEFA POST percentage damage caused to the plant (five-point scale): post-emergence; for AVEFA PRE percentage damage caused to the plant (five-point scale): pre-emergence
# Procedure: as §1
# Lolium perenne (LOLPE) = settings: 250 g/h, evaluated after 13 days; for LOLPE POST percentage damage caused to the plant (five-point scale): post-emergence; for LOLPE PRE percentage damage caused to the plant (five-point scale): pre-emergence
# Procedure: as §1
# [2] = tested on: Echinochloa crus-galli (ECHCG); settings: 250 g/h, evaluated after 13 days; for ECHCG POST percentage damage caused to the plant (five-point scale): post-emergence; for ECHCG PRE percentage damage caused to the plant (five-point scale): pre-emergence
# Procedure: as §1
# Setaria faberi (SETFA) = settings: 250 g/h, evaluated after 13 days; for SETFA POST percentage damage caused to the plant (five-point scale): post-emergence; for SETFA PRE percentage damage caused to the plant (five-point scale): pre-emergence
# Procedure: as §1
SMILES,ALOMY POST percentage damage caused to the plant (five-point scale) [1],ALOMY PRE percentage damage caused to the plant (five-point scale) [1],AVEFA POST percentage damage caused to the plant (five-point scale) (Avena fatua (AVEFA)),AVEFA PRE percentage damage caused to the plant (five-point scale) (Avena fatua (AVEFA)),LOLPE POST percentage damage caused to the plant (five-point scale) (Lolium perenne (LOLPE)),LOLPE PRE percentage damage caused to the plant (five-point scale) (Lolium perenne (LOLPE)),ECHCG POST percentage damage caused to the plant (five-point scale) [2],ECHCG PRE percentage damage caused to the plant (five-point scale) [2],SETFA POST percentage damage caused to the plant (five-point scale) (Setaria faberi (SETFA)),SETFA PRE percentage damage caused to the plant (five-point scale) (Setaria faberi (SETFA))
CC#Cc1cc(Cl)c(C2C(=O)CC3(CCN(C(=O)C(F)F)CC3)CC2=O)c(OC)c1 [Compound A9],5 (5=80-100%),5 (5=80-100%),5 (5=80-100%),5 (5=80-100%),5 (5=80-100%),5 (5=80-100%),5 (5=80-100%),5 (5=80-100%),5 (5=80-100%),5 (5=80-100%)
CC#Cc1cc(CC)c(C2C(=O)CC3(CCN(C(C)=O)CC3)CC2=O)c(CC)c1 [Compound A48],5 (5=80-100%),5 (5=80-100%),5 (5=80-100%),5 (5=80-100%),5 (5=80-100%),5 (5=80-100%),5 (5=80-100%),4 (4=60-79%),5 (5=80-100%),5 (5=80-100%)
"CCc1cc(-c2ccc(C#N)cn2)cc(C)c1C1C(=O)CC2(CCN(C(=O)C3CC3)CC2)CC1=O [Compound A51, 6-[4-[3-(cyclopropanecarbonyl)-8,10-dioxo-3-azaspiro[5.5]undecan-9-yl]-3-ethyl-5-methyl-phenyl]pyridine-3-carbonitrile]",5 (5=80-100%),5 (5=80-100%),5 (5=80-100%),5 (5=80-100%),5 (5=80-100%),5 (5=80-100%),5 (5=80-100%),4 (4=60-79%),5 (5=80-100%),5 (5=80-100%)
CCc1cc(-c2ccc(C#N)cn2)cc(CC)c1C1C(=O)CC2(CCN(C(=O)C3CC3)CC2)CC1=O [Compound A52],5 (5=80-100%),5 (5=80-100%),5 (5=80-100%),5 (5=80-100%),5 (5=80-100%),5 (5=80-100%),5 (5=80-100%),5 (5=80-100%),5 (5=80-100%),5 (5=80-100%)
Cc1cc(-c2ccc(F)cn2)cc(Cl)c1C1C(=O)CC2(CCN(C(=O)C3CC3)CC2)CC1=O [Compound A58],5 (5=80-100%),5 (5=80-100%),5 (5=80-100%),5 (5=80-100%),5 (5=80-100%),5 (5=80-100%),5 (5=80-100%),5 (5=80-100%),5 (5=80-100%),5 (5=80-100%)
CC#Cc1cc(Cl)c(C2C(=O)CC3(CCN(C(=O)c4ccccn4)CC3)CC2=O)c(OC)c1 [Compound A4],5 (5=80-100%),5 (5=80-100%),5 (5=80-100%),5 (5=80-100%),5 (5=80-100%),5 (5=80-100%),5 (5=80-100%),5 (5=80-100%),5 (5=80-100%),5 (5=80-100%)
CC#Cc1cc(Cl)c(C2C(=O)CC3(CCN(C(C)=O)CC3)CC2=O)c(CC)c1 [Compound A49],5 (5=80-100%),5 (5=80-100%),5 (5=80-100%),5 (5=80-100%),5 (5=80-100%),5 (5=80-100%),5 (5=80-100%),5 (5=80-100%),5 (5=80-100%),5 (5=80-100%)
CC#Cc1cc(C)c(C2C(=O)CC3(CCN(C(C)=O)CC3)CC2=O)c(CC)c1 [Compound A47],5 (5=80-100%),5 (5=80-100%),5 (5=80-100%),5 (5=80-100%),5 (5=80-100%),5 (5=80-100%),5 (5=80-100%),5 (5=80-100%),5 (5=80-100%),5 (5=80-100%)
CC#Cc1cc(Cl)c(C2C(=O)CC3(CCN(C(=O)C(C)(C)C)CC3)CC2=O)c(OC)c1 [Compound A10],5 (5=80-100%),5 (5=80-100%),5 (5=80-100%),5 (5=80-100%),5 (5=80-100%),5 (5=80-100%),5 (5=80-100%),5 (5=80-100%),5 (5=80-100%),5 (5=80-100%)
CC#Cc1cc(Cl)c(C2C(=O)CC3(CCN(C(C)=O)CC3)CC2=O)c(OC)c1 [Compound A1],–,–,5 (5=80-100%),5 (5=80-100%),5 (5=80-100%),5 (5=80-100%),5 (5=80-100%),5 (5=80-100%),5 (5=80-100%),5 (5=80-100%)
